The source of these data is ChEMBL document CHEMBL5233237, “Agonist and antagonist ligands of toll-like receptors 7 and 8: Ingenious tools for therapeutic purposes” (Eur J Med Chem, 2020).

A word on the EC50: it is the concentration that produces a half-maximal response. For orientation: pKd means the Kd on a negative log10 scale, so that one unit is a factor of ten. A word on the pEC50: it is the EC50 on a negative log10 scale, so that one unit is a factor of ten.

pEC50, pKd: −log10 of the molar value.

In test [1] the target is T1, Toll-like receptor 8 (Homo sapiens) (UniProt Q9NR97).
T1 sequence (whole entry): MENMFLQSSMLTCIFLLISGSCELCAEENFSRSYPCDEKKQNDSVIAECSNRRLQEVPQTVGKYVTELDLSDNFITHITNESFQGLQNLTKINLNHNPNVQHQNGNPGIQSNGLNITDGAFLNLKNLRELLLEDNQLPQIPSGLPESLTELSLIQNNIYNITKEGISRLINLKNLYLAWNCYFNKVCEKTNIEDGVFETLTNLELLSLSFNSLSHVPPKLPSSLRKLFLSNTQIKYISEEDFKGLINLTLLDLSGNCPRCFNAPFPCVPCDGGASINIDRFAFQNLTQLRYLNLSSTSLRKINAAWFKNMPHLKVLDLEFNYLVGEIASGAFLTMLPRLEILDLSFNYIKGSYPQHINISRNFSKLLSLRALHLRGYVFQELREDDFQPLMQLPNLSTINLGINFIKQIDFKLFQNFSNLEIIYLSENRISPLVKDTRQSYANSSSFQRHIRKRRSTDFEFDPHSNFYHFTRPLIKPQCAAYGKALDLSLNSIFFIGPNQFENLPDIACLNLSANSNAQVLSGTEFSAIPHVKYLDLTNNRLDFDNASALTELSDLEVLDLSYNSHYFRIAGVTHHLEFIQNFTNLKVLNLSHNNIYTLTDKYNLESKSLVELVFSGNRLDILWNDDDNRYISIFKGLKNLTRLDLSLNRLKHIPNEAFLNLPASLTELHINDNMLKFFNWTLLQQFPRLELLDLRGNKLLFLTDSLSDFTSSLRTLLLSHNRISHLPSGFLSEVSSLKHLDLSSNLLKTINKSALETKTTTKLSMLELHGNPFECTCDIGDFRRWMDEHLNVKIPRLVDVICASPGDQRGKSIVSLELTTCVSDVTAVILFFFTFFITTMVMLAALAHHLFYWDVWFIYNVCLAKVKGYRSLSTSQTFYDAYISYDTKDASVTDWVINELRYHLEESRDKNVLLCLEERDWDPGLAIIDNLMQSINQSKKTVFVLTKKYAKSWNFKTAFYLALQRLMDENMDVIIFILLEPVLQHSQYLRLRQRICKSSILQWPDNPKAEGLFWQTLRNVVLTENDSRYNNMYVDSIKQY
The experiment in a line: (§1) Agonist activity at human TLR8. To be noted: filed as agonist.

Test [2] concerns the target Mitogen-activated protein kinase 3 (Homo sapiens, UniProt P27361). In words: Binding affinity to ERK1 (unknown origin) by surface plasmon resonance assay. In general terms: In SPR one partner is held on a chip, and binding of the other changes the refractive index at the surface.
A short description of test [3]: Binding affinity to RasGAP (unknown origin) by surface plasmon resonance assay. The arrangement: species or system Homo sapiens.
In test [4] the target is T2, Toll-like receptor 8 (Homo sapiens, UniProt Q9NR97).
T2 sequence (Q9NR97 whole entry): T1 sequence (whole entry)
Described as §1.

The subject of another test is B16. In words: Antitumor activity against mouse B16 cells xenografted in mouse assessed as inhibition of tumor growth at 2 mg measured after 3 days. Type of test: functional. Details: scale not given: the % may be the effect or the level left. The following applies: time 3 day.
For the next test, the system named is Hepatitis C virus. In words: Antiviral activity against HCV infected in human Huh-7 cells assessed as reduction in HCV level at 1 to 10 uM measured after 24 h by real-time PCR method. Details: scale not given: the % may be the effect or the level left. To be noted: dose 1-10 µM. Background: In qPCR the cycle at which signal appears reflects the starting amount.

The test system of a further test is Mus musculus. The experiment in a line: Potency index ratio of imiquimod MED to test compound MED for induction of IFN in po dosed mouse assessed as minimum effective dose. Type of test: functional.
In test [5] the target is T2, Toll-like receptor 8. The experiment in a line: Agonist activity in TLR8 (unknown origin) expressed in HEK293 cells assessed as induction of NF-kappa activation. Type of test: cell-based.
In another test the target is T3, Toll-like receptor 7 (Homo sapiens, UniProt Q9NYK1).
T3 sequence (Q9NYK1 whole entry): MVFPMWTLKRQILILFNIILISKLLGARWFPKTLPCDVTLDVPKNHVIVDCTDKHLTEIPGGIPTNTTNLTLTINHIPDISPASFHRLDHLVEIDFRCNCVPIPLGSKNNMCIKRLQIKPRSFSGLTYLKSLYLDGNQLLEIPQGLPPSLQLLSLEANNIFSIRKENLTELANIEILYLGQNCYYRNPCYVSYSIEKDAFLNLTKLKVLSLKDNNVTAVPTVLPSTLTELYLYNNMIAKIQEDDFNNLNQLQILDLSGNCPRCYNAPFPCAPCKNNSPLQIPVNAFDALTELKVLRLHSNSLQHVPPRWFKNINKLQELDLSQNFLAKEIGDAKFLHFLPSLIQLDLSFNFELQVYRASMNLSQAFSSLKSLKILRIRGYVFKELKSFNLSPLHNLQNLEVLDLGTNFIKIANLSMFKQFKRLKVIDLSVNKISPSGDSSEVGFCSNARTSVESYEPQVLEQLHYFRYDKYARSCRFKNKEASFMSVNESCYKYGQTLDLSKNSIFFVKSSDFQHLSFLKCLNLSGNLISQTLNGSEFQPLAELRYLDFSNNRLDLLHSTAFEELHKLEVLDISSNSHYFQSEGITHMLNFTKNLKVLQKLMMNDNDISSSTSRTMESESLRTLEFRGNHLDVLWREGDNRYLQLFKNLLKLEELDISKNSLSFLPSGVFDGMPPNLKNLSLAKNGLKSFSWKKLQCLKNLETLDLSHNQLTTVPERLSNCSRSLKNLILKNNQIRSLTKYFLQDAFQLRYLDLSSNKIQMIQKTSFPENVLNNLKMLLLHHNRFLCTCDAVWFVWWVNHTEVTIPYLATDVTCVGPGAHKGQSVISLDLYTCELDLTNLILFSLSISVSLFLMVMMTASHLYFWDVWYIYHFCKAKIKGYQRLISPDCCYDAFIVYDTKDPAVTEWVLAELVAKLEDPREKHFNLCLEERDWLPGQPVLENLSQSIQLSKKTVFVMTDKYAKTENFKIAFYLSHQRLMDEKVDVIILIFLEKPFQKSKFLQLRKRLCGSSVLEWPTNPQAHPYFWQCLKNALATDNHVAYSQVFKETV
The experiment in a line: Agonist activity at human TLR7 transfected in HEK-Blue hTLR7 cells. The class given is cell-based.

Test [6] addresses T2, Toll-like receptor 8. In words: Agonist activity at human TLR8 transfected in HEK-Blue hTLR8 cells. Type of test: cell-based.

Chain of Mitogen-activated protein kinase 3 (P27361 whole entry): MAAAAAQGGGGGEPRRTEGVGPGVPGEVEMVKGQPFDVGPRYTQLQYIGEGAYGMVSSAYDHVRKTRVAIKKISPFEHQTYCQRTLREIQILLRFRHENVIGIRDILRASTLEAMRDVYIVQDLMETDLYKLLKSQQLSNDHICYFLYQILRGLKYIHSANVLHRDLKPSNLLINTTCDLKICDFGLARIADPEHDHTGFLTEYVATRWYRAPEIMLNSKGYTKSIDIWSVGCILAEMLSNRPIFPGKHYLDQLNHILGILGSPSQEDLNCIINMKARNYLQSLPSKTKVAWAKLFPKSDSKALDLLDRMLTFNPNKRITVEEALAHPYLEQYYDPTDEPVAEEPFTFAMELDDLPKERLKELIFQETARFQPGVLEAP

Regarding `CCCCc1nc2c(N)nc3cc(C(=O)OC)ccc3c2n1CCCCCN`, the midpoint of the response in test [1], the EC50, lay at 1600 nM.
On to `Cc1cc(Nc2ncc3c(n2)N(C)C(=O)N(c2cc(NC(=O)c4cccc(C(F)(F)F)c4)ccc2C)C3)n(C)n1`, for which the figures for the pKd in [2] and in [3] were 7.01 and 6.67, respectively.
`CCCCc1nc2c(N)nc3ccccc3c2s1` gave a pEC50 on Toll-like receptor 8 [4] of 6.70.
Regarding `C=CCn1c(=O)n([C@@H]2O[C@H](CO)[C@@H](O)[C@H]2O)c2nc(N)[nH]c(=O)c21` [LOXORIBINE], the Activity in the test with B16 stood at 96%.
With `COCCOc1nc(N)c2[nH]c(=O)n(Cc3ccccc3)c2n1`, in the test on Hepatitis C virus, the Activity came to 60%. In addition, in the test with Mus musculus, the Ratio is reported as 100.
On to `CCOC(=O)C1=Cc2ccc(-c3cccc(C#N)c3)cc2N=C(N)C1`, for which the pEC50 at Toll-like receptor 8 [5] is 7.52; at Toll-like receptor 7, 4.82; at Toll-like receptor 8 [6] it was 7.52.
